Measurements as given in patent US9056859B2, “Inhibitors of the renal outer medullary potassium channel” (Merck Sharp & Dohme Corp., priority 2010, dated 2015).
pIC50: −log10 of the molar value. Like-named read-outs stand apart in the source and are kept apart here.

Molecular target: Kir1.1 (ROMK1) (Homo sapiens (Human), UniProt P48048)
Test: ROMK electrophysiology assay (IonWorks Quattro whole cell voltage clamp)
Type: cell-based
[1] = Chinese hamster ovary cells stably expressing Kir1.1, block during voltage step to 0 mV, 6 min compound incubation, read-out: ROMK Electrophysiology Assay IC50

Kir1.1 (ROMK1), sequence (P48048 whole entry): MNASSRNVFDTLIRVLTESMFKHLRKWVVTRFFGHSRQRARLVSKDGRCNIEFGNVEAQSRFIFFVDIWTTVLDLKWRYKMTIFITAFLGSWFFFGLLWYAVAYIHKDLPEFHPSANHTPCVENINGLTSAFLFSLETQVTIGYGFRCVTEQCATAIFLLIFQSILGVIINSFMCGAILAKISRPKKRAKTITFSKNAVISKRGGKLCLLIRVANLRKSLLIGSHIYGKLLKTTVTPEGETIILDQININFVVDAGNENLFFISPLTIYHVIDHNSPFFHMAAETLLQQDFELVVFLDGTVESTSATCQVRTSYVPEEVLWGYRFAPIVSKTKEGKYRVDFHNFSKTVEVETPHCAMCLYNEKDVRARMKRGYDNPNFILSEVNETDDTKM

Row | Structure (SMILES) | pIC50 [1] | pIC50
1 | Cc1c([C@@H](O)CN2CCN(C(=O)Cc3ccc(-n4cnnn4)nc3)C3CC32)ccc2c1COC2=O (stereo partly drawn) [Example 217, 5-[(1R)-1-hydroxy-2-(5-{[6-(1H-tetrazol-1-yl)pyridin-3-yl]acetyl}-2,5-diazabicyclo[4.1.0]hept-2-yl)ethyl]-4-methyl-2-benzofuran-1(3H)-one] | 7.25 | –
2 | COc1cc(CC(=O)N2CCN(CCc3ccc4c(c3C)COC4=O)CC2)c(F)cc1C#N [Example 48] | – | 7.46
3 | Cc1c(CCN2CCN(C(=O)C3CCc4nc(-n5cnnn5)ccc43)CC2)ccc2c1COC2=O (single isomer, unassigned) [Example 96] | 7.21 | –
4 | N#Cc1ccc(CCN2CCN(C(=O)Cc3ccc(-n4cnnn4)cc3)CC2)cc1F [Example 39] | 7.20 | –
5 | Cc1c(CCN2CCN(C(=O)Cc3ccc(-n4cnnn4)cc3)CC2)ccc(F)c1C#N [Example 122] | 7.43 | –
6 | O=C1OCc2cc(CCN3CCCN(C(=O)Cc4ccc(-n5cnnn5)cc4)CC3)ccc21 [Example 11] | – | 7.92
7 | Cc1c(CCN2CCN(C(=O)Cc3cc(F)c(C#N)cc3F)CC2)ccc2c1COC2=O [Example 59] | 7.03 | –
8 | C[C@H]1Cc2cc(CCN3CCN(C(=O)C4CCc5nc(-n6cnnn6)ccc54)CC3)ccc2C(=O)O1 (single isomer, unassigned) [Example 177] | 7.00 | –
